In US10722491B2, “Phenol compound and combination of same with a benzodiazepine fused to 1,4-dihydropyridine for treating diseases of the central nervous and vascular systems” (UNIVERSIDAD DE LA HABANA, priority 2016, dated 2020):

How the values were obtained:
[1] = test system: scopolamine cognitive deficit; experiment: Scopolamine-induced dementia, new-object recognition; assay type: in vivo, rats; settings: 4 and 8 mg/kg p.o., 1 hour before scopolamine 1 mg/kg i.p.
Description: FIG. 12. Effect of KM-34 on the recognition memory of new objects. In the new-object recognition test, KM-34 (2, 4 and 8 mg/kg, p.o) was administered 1 hour prior to scopolamine (1 mg/kg, i.p.) prior to the training phase. The results are expressed as the discrimination rate of the total time by scanning the object N with respect to F. The data are expressed as mean ± SD (n=8, per group). For statistical analysis, ANOVA and Tukey's multiple comparison test were performed. Different letters differ from each other for p<0.01.
In in vivo models, KM-34 was administered orally (p.o) at a rate of 4 mL/kg body weight. Doses of 2, 4 and 8 mg/kg were evaluated as acute administration 90 minutes before the start of behavioral tests. For administration the compound was suspended in carboxymethylcellulose (CMC) 0.05%. Scopolamine bromide was dissolved in 0.9% saline solution and administered intraperitoneally as a single dose (1 mg/kg, 4 mL/kg body weight) 30 minutes prior to the initiation of the behavioral tests. […]
This trial was conducted as proposed by Capurro et al. (Capurro et al., 2013), in an open field, on two successive days. […] The tests were video-recorded for the analysis of the exploration of the objects, defined by the time of exploration that the animal performs to each object. The discrimination rates between the F and N objects were calculated as: ID=(N−F)/(N+F).

[2] = test system: occlusion of the middle cerebral artery in rats; experiment: Transient middle cerebral artery occlusion, cerebral infarct size (TTC); assay type: in vivo; settings: for Total volume of infarction (percentage of the contralateral hemisphere): 1 hour after reperfusion, 90 min occlusion, 23 h reperfusion, vehicle 27.5%
Description: FIG. 13. Acute treatment with KM-34 reduced the volume of infarction edema and deficit in rat behavior after 90 min of middle cerebral artery occlusion (MACA) and 23 hours of reperfusion. The different doses of the compound were administered orally 1 hour after reperfusion. (A) Representative brain coronal sections (2 mm thick) of the sham and ischemic groups treated with vehicle or KM-34 (0.1, 0.5 or 1 mg/kg) and stained with 2,3,5-triphenyltetrazolium (TTC) 2%. The red regions correspond to undamaged tissue and white to ischemic regions. (B) Quantitative analysis of cortical, subcortical and total lesion size. (C) Neurological deficit. The bars represent the mean ± SEM (n=8). Different letters in (A) and * in (B): p<0.05, by ANOVA and post hoc of Newman-Keuls. Scale=10 mm.
The animals were randomly divided into the following groups (n=8 per group): (1) vehicle treated ischemia/reperfusion (I/R) control, (2) KM-34 treated I/R 0.1 mg/kg, (3) I/R treated with KM-34 0.5 mg/kg, (4) I/R treated with KM-34 1 mg/kg, (5) sham-operated vehicle treated and (6) sham—With KM-34 1 mg/kg. In all cases the treatment was administered orally (with an intragastric cannula). […]
Transient cerebral ischemia was performed by the OACM, using the intraluminal filament method. […] After 23 hours of reperfusion, the neurological deficit was evaluated and the animals sacrificed to determine the infarct volume and perform the behavioral evaluations.
Cerebral infarction was determined by staining with TTC, a colorless compound in solution but which, when reduced by dehydrogenases of functional mitochondria, forms a red brick formazan salt. […]
The animals were anesthetized again after the neurological evaluation and were perfused transcardially with 20 mL of saline at 4° C. […] The edema index (volume of the hemisphere ipsilateral to the OACM/volume of the contralateral hemisphere) and the volume of corrected infarction (volume of the lesion/edema index) were calculated to avoid overestimation of the infarct volume by cerebral edema. Infarct volume was expressed as a percentage of the contralateral hemisphere.

CC1(C)OC(=O)C(=Cc2ccc(O)c(O)c2)C(=O)O1 [KM-34, 5-[(3,4-dihydroxyphenyl)methylidene]-2,2-dimethyl-1,3-dioxane-4,6-dione]
Recognition memory, discrimination index of new objects [1]: able to revert the affectation on the learning and the memory of term recognition induced by scopolamine
Total volume of infarction (percentage of the contralateral hemisphere) ([2]; 0.5 mg/kg oral): 15.7%
Total volume of infarction (percentage of the contralateral hemisphere) ([2]; 1 mg/kg oral): 5.3%
Tissue damage or behavioral alterations under basal conditions ([2]; sham group (without OACM), KM-34 1 mg/kg oral): no sign of tissue damage or behavioral alterations
